Test system: α-N-acetyl-D-galactosaminidase
Assay: Biological stability test against glycosidase (remaining substrate by NMR)
Type: in vitro ADME
Settings: for remaining substrate: α-N-acetyl galactosaminidase 0.32 unit, citric acid buffer pD=3, 35° C.
Description: [Biological Stability Test]
To evaluate the stability of C-glycoside, the biological stability of C-allyl derivative (A) and O-allyl derivative (B) against to α-N-acetyl-D-galactosaminidase as glycosidase ware compared according to Mark von Itzstein's method (Org. Lett., 1999, 1, 443–446).
[drawing 118] • enzyme; α-N-acetyl galactosaminidase 0.32 unit (1.69 unit/mL 0.1% BSA containing 0.5M sodium citrate buffer) • solvent; citric acid buffer (pD=3) 0.6 mL • temperature; 35° C. • procedure; Substrate (2 mg) was dissolved in citric acid buffer (0.6 mL) and α-N-acetyl galactosaminidase (0.32 unit) was added. NMR spectrum was determined in every constant time and the content of the remaining substrates were determined.

Q: With C=CC[C@H]1O[C@H](CO)[C@H](O)[C@H](O)[C@H]1NC(C)=O [A] as the compound, how does the “effect of enzyme on substrate (degradation)” value (after 24 h) read?
A: The value was “unaffected by enzyme”.

Q: And the remaining substrate (time 2)?
A: The remaining substrate was 100.

Q: And the remaining substrate (time 4)?
A: Its remaining substrate is 100.

Q: And the remaining substrate (time 6)?
A: Its remaining substrate is 100.

Q: And the remaining substrate (time 8)?
A: The remaining substrate was 100.

Q: And the remaining substrate (time 10)?
A: The remaining substrate was 100.

Q: And the remaining substrate (time 12)?
A: Its remaining substrate is 100.

Q: And the remaining substrate (time 18)?
A: Its remaining substrate is 100.

Q: What about the remaining substrate (time 24) of the same compound?
A: Its remaining substrate is 100.

From patent publication US7045515B2, “β-lactam compounds process for reproducing the same and serum cholesterol-lowering agents containing the same” (Kotobuki Pharmaceutical Co., Ltd., priority 2001, dated 2006)
